{"source": "paper PMC10053369", "about": "“Recombinant Analogs of Sea Anemone Kunitz-Type Peptides Influence P2X7 Receptor Activity in Neuro-2a Cells” (Marine Drugs, 2023)", "test_system": "Neuro-2a cells", "experiment": "Cytoprotection against ATP-induced cell death (MTT assay)", "type": "cell-based, mouse", "conditions": "long-time application of ATP (4 mM, 48 h)", "method": "Neuro-2a neuroblastoma cells (ATCC® CCL-131™) were obtained from American Type Culture Collection (Manassas, VA, USA). The cells were cultivated in DMEM medium (BioloT, St. Petersburg, Russia) supplemented with 10% of fetal bovine serum (BioloT, St. Petersburg, Russia) and 1% penicillin/streptomycin (BioloT, St. Petersburg, Russia) at 37 °C and 5% CO2. Initially, cells were incubated in cultural flasks until sub-confluent (~80%). For testing, Neuro-2a cells were seeded in 96-well plates and experiments were started after 24 h.\nThe cytoprotective effect of peptides was assessed in Neuro-2a cells using the MTT assay. In brief, an aliquot (180μL) of cell suspension with a nominal cell density of 3 × 10^4 cells/well was dispensed into 96-well plates. The cells were incubated for 24 h in a humidified atmosphere containing 5% CO2 to allow cell attachment. At the end of the preincubation period, ATP (Sigma-Aldrich, St. Louis, MO, USA) was added to the cells at a concentration of 4 mM. Studied peptides were added to the cells at concentrations of 0.1, 1.0 or 10.0 μM for 1h prior to the addition of ATP. After incubation for 48 h at 37 °C cell viability was detected using the MTT as described previously. The standard P2X7 inhibitor, A438079 (Sigma-Aldrich, St. Louis, MO, USA), at a concentration of 10 μM was used as a positive control.\nAll data were obtained in three independent replicates and calculated values were expressed as mean ± standard error of the mean (SEM). The Student’s t-test was performed using SigmaPlot 14.0 (Systat Software Inc., San Jose, CA, USA) to determine statistical significance.", "note": "Positions of bridges follow the written chain, without caps; N, C: chain ends. No end group written: not given here."}
{"sequence": "RGICSEPKVVGPCKAGLRRFYYDSETGECKPFIYGGCKGNKNNFETLHACRGICRA (disulfide 4-54, 13-37, 29-50 (inferred)) [HCRG1]", "values": [{"measurement": "protection from ATP-induced death", "value": "partially protected neuroblastoma cells from ATP-induced death"}]}
